Data: the supplement of paper PMC11208160

Test: recombinant UMI read abundance after kanamycin selection (control-corrected) (log10(CPM+1)); higher = more efficient recombination; extreme values may be limits of the assay; sequences stand for … in AGTGCAGAGAAAATCGGCCAGTTTTCTCTGCCTGCAGTCCGCATGCCGTGGGACCCCTTGGGTTCTAACCTGTTGCCTAGATTTATGCAGCGGACTGCCTTTCTCCCAAAGTGATAAACCGG…AGGTTGGTTTCACT; site = the 11-nt donor
Outline: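 After plating on IPTG (0.07 mM) plus kanamycin, or unselected, in two replicates, recombinant UMIs were PCR-amplified across the donor–target junction and sequenced. The cells were Escherichia coli co-electroporated with a UMI-tagged donor and donor-binding-loop pair library and a target plasmid with a fixed target and T7-inducible IS621 bridge recombinase. Values are log10(CPM+1), with CPM averaged over replicates and scaled by control-derived factors.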

Row | Sequence | recombinant UMI read abundance (log10)
1 | CGCATTACATGGACCGGTTTTCCCGGTAATCCGTATTTGCA (site CGCATTACTTG) | 1.64
2 | CGCATTTCATGGACCGGTTTTCCCGGTAATCCGTATTTGAG (site CGCATTTCTCT) | 0.426
3 | CGCCACTCATGGACCGGTTTTCCCGGTAATCCGTATTTGCG (site CGCCACTCTCG) | 2.05
4 | CGCCCGACATGGACCGGTTTTCCCGGTAATCCGTATTTGCC (site CGCCCGACTGG) | 2.5
5 | CGCCCTACATGGACCGGTTTTCCCGGTAATCCGTATTTGAG (site CACCCTACTCT) | 0.475
6 | CGCCCTACATGGACCGGTTTTCCCGGTAATCCGTATTTGAG (site CCCCCTACTCT) | 0.0131
7 | CGCCCTACATGGACCGGTTTTCCCGGTAATCCGTATTTGAG (site CGCCCTACTCT) | 1.44
8 | CGCCCTACATGGACCGGTTTTCCCGGTAATCCGTATTTGAG (site CTCCCTACTCT) | 0.0151
9 | CGCCGCACATGGACCGGTTTTCCCGGTAATCCGTATTTGCT (site CGCCGAACTAG) | 0
10 | CGCCGCACATGGACCGGTTTTCCCGGTAATCCGTATTTGCT (site CGCCGCACTAG) | 2.18
11 | CGCCGCACATGGACCGGTTTTCCCGGTAATCCGTATTTGCT (site CGCCGGACTAG) | 0.00439
12 | CGCCGCACATGGACCGGTTTTCCCGGTAATCCGTATTTGCT (site CGCCGTACTAG) | 0
13 | CGCCGGACATGGACCGGTTTTCCCGGTAATCCGTATTTGCT (site CGCCGAACTAG) | 2.52
14 | CGCCGGACATGGACCGGTTTTCCCGGTAATCCGTATTTGCT (site CGCCGCACTAG) | 0.00459
15 | CGCCGGACATGGACCGGTTTTCCCGGTAATCCGTATTTGCT (site CGCCGGACTAG) | 1.82
16 | CGCCGGACATGGACCGGTTTTCCCGGTAATCCGTATTTGCT (site CGCCGTACTAG) | 0
17 | CGCCGTACATGGACCGGTTTTCCCGGTAATCCGTATTTGCT (site AGCCGTACTAG) | 0.192
18 | CGCCGTACATGGACCGGTTTTCCCGGTAATCCGTATTTGCT (site CACCGTACTAG) | 0.33
19 | CGCCGTACATGGACCGGTTTTCCCGGTAATCCGTATTTGCT (site CCCCGTACTAG) | 0.907
20 | CGCCGTACATGGACCGGTTTTCCCGGTAATCCGTATTTGCT (site CGACGTACTAG) | 0.00883
21 | CGCCGTACATGGACCGGTTTTCCCGGTAATCCGTATTTGCT (site CGCAGTACTAG) | 0.331
22 | CGCCGTACATGGACCGGTTTTCCCGGTAATCCGTATTTGCT (site CGCCATACTAG) | 0.922
23 | CGCCGTACATGGACCGGTTTTCCCGGTAATCCGTATTTGCT (site CGCCCTACTAG) | 0.301
24 | CGCCGTACATGGACCGGTTTTCCCGGTAATCCGTATTTGCT (site CGCCGAACTAG) | 0
25 | CGCCGTACATGGACCGGTTTTCCCGGTAATCCGTATTTGCT (site CGCCGCACTAG) | 0.796
26 | CGCCGTACATGGACCGGTTTTCCCGGTAATCCGTATTTGCT (site CGCCGGACTAG) | 0

Row | Sequence | recombinant UMI read abundance (log10)
27 | CGCCGTACATGGACCGGTTTTCCCGGTAATCCGTATTTGCT (site CGCCGTACTAA) | 0.0116
28 | CGCCGTACATGGACCGGTTTTCCCGGTAATCCGTATTTGCT (site CGCCGTACTAC) | 0.00604
29 | CGCCGTACATGGACCGGTTTTCCCGGTAATCCGTATTTGCT (site CGCCGTACTAG) | 1.59
30 | CGCCGTACATGGACCGGTTTTCCCGGTAATCCGTATTTGCT (site CGCCGTACTAT) | 0.0196
31 | CGCCGTACATGGACCGGTTTTCCCGGTAATCCGTATTTGCT (site CGCCGTACTCG) | 0.111
32 | CGCCGTACATGGACCGGTTTTCCCGGTAATCCGTATTTGCT (site CGCCGTACTGG) | 0
33 | CGCCGTACATGGACCGGTTTTCCCGGTAATCCGTATTTGCT (site CGCCGTACTTG) | 0.00335
34 | CGCCGTACATGGACCGGTTTTCCCGGTAATCCGTATTTGCT (site CGCCGTCCTAG) | 0
35 | CGCCGTACATGGACCGGTTTTCCCGGTAATCCGTATTTGCT (site CGCCGTGCTAG) | 0.065
36 | CGCCGTACATGGACCGGTTTTCCCGGTAATCCGTATTTGCT (site CGCCGTTCTAG) | 0
37 | CGCCGTACATGGACCGGTTTTCCCGGTAATCCGTATTTGCT (site CGCCTTACTAG) | 0
38 | CGCCGTACATGGACCGGTTTTCCCGGTAATCCGTATTTGCT (site CGCGGTACTAG) | 0
39 | CGCCGTACATGGACCGGTTTTCCCGGTAATCCGTATTTGCT (site CGCTGTACTAG) | 0
40 | CGCCGTACATGGACCGGTTTTCCCGGTAATCCGTATTTGCT (site CGGCGTACTAG) | 0.0034
41 | CGCCGTACATGGACCGGTTTTCCCGGTAATCCGTATTTGCT (site CGTCGTACTAG) | 0
42 | CGCCGTACATGGACCGGTTTTCCCGGTAATCCGTATTTGCT (site CTCCGTACTAG) | 0
43 | CGCCGTACATGGACCGGTTTTCCCGGTAATCCGTATTTGCT (site GGCCGTACTAG) | 0.00569
44 | CGCCGTACATGGACCGGTTTTCCCGGTAATCCGTATTTGCT (site TGCCGTACTAG) | 0.0708
45 | CGCCGTACATGGACCGGTTTTCCCGGTAATCCGTATTTGTT (site CGCCGTACTAA) | 1.23
46 | CGCCGTACATGGACCGGTTTTCCCGGTAATCCGTATTTGTT (site CGCCGTACTAC) | 0.00659
47 | CGCCGTACATGGACCGGTTTTCCCGGTAATCCGTATTTGTT (site CGCCGTACTAG) | 0.486
48 | CGCCGTACATGGACCGGTTTTCCCGGTAATCCGTATTTGTT (site CGCCGTACTAT) | 0.0268
49 | CGCCGTGCATGGACCGGTTTTCCCGGTAATCCGTATTTGCT (site CGCCGTACTAG) | 1.29
50 | CGCCGTGCATGGACCGGTTTTCCCGGTAATCCGTATTTGCT (site CGCCGTCCTAG) | 0.00563
51 | CGCCGTGCATGGACCGGTTTTCCCGGTAATCCGTATTTGCT (site CGCCGTGCTAG) | 1.97
52 | CGCCGTGCATGGACCGGTTTTCCCGGTAATCCGTATTTGCT (site CGCCGTTCTAG) | 0.0147
